This is an account of results in patent publication US5109111A, “CRF antagonists” (The Salk Institute for Biological Studies, priority 1990, dated 1992).

Square brackets hold non-standard residues; d marks the D form. Peptide text beside a SMILES is read from it. hArg = N=C(N)NCCCC[C@H](N)C(=O)O; dNle = CCCC[C@@H](N)C(=O)O; Nle = CCCC[C@H](N)C(=O)O

The subject of the first experiment is secretion of ACTH stimulated by oCRF in cultured rat pituitary cells. Nature of the experiment: Blocking of oCRF-stimulated ACTH and β-endorphin secretion by cultured rat pituitary cells. Format: cell-based. To be noted: ACTH secretion stimulated by a 1 nM dose of oCRF; AHC(9-41) = reference. On the procedure: The effectiveness of synthetic CRF antagonists to block the secretion of ACTH and β-endorphin by cultured rat pituitary cells is measured using the procedure as generally set forth in Vale et al., Endocrinology, 91, 562 (1972).
Take [D-2Nal^12, Nle^21,38 ]-hCRF(12-41) [X]: the “potency compared to AHC(9-41) in blocking by 50% the secretion of ACTH” value was “about 9 times as potent as AHC(9-41)”. Still for that read-out and setting: next, [Nle^21,38, Arg^37 ]-hCRF(12-41) [IX]: “more than 6 times as potent as AHC(9-41)”.

The same experiment, now with this note: result in words.
As for “[D-Val^12, Nle^21,38, Ile^24,27, Nva^41 ]-hCRF(11-41) [XXVIII]”, the “inhibition of the secretion of ACTH and β-END-LI” value (from here on “inhibition”) was “inhibits the secretion of ACTH and β-END-LI”. [D-2Nal^12, Nle^21,38 ]-hCRF(12-41) [X]: the “inhibition” value was “inhibits the secretion of ACTH and β-END-LI”. Same read-out and setting: next, `CCCC[C@@H](N)C(=O)N[C@@H](Cc1c[nH]cn1)C(=O)N[C@@H](CC(C)C)C(=O)N[C@@H](CC(C)C)C(=O)N[C@@H](CCCNC(=N)N)C(=O)N[C@@H](CCC(=O)O)C(=O)N[C@@H](CCCC)C(=O)N[C@@H](CC(N)=O)C(=O)N[C@@H](CCC(=O)O)C(=O)N[C@@H](CCCC)C(=O)N[C@@H](CC(=O)O)C(=O)N[C@@H](CCCCN)C(=O)N[C@@H](C)C(=O)N[C@@H](CCC(=O)O)C(=O)N[C@@H](CCC(N)=O)C(=O)N[C@@H](Cc1ccccc1)C(=O)N[C@@H](C)C(=O)N[C@@H](CCC(=O)O)C(=O)N[C@@H](CCC(N)=O)C(=O)N[C@@H](C)C(=O)N[C@@H](C)C(=O)N[C@@H](CC(C)C)C(=O)N[C@@H](CC(N)=O)C(=O)N[C@@H](CCCNC(=N)N)C(=O)N[C@@H](CC(C)C)C(=O)N[C@@H](CC(C)C)C(=O)N[C@@H](CCCC)C(=O)N[C@@H](CCC(=O)O)C(=O)N[C@@H](CCC(=O)O)C(=O)N[C@@H](C)C(N)=O` [XXVII, [D-Nle^12, Nle^18,21,38, Asn^19, Asp^22, Phe^27]-AHC(12-41)] (H-[dNle]HLLRE[Nle]NE[Nle]DKAEQFAEQAALNRLL[Nle]EEA-NH2): “inhibits the secretion of ACTH and β-END-LI”. For `CCCC[C@H](NC(=O)[C@H](CC(C)C)NC(=O)[C@H](CC(C)C)NC(=O)[C@H](CCCNC(=N)N)NC(=O)[C@H](CC(N)=O)NC(=O)[C@H](CC(C)C)NC(=O)[C@H](C)NC(=O)[C@H](C)NC(=O)[C@H](CCC(N)=O)NC(=O)[C@H](CCC(=O)O)NC(=O)[C@H](C)NC(=O)[C@H](CCC(=O)O)NC(=O)[C@H](CCCCN)NC(=O)[C@H](CCC(=O)O)NC(=O)[C@H](C)NC(=O)[C@H](CCCCN)NC(=O)[C@H](CCC(=O)O)NC(=O)[C@H](CCSC)NC(=O)[C@H](CCC(=O)O)NC(=O)[C@H](CC(C)C)NC(=O)[C@H](CCSC)NC(=O)[C@H](CCC(=O)O)NC(=O)[C@H](CCCNC(=N)N)NC(=O)[C@H](CC(C)C)NC(=O)[C@H](CC(C)C)NC(=O)[C@H](CCC(=O)O)NC(=O)[C@@H](N)CC(C)C)C(=O)N[C@@H](CCC(=O)O)C(=O)N[C@@H](CCC(=O)O)C(=O)N[C@@H](C)C(N)=O` [XXIII, [Leu^12, Glu^13,22, Lys^26, Nle^38]-AHC (12-41)] (H-LELLREMLEMEKAEKEAEQAALNRLL[Nle]EEA-NH2), the “inhibition” value was “inhibits the secretion of ACTH and β-END-LI”. Still for that read-out and setting: the entry for `CCCC[C@H](NC(=O)[C@H](CCC(=O)O)NC(=O)[C@@H](NC(=O)[C@H](CCCC)NC(=O)[C@H](CC(N)=O)NC(=O)[C@H](CCCNC(=N)N)NC(=O)[C@H](CC(C)C)NC(=O)[C@H](CC(C)C)NC(=O)[C@H](Cc1c[nH]cn1)NC(=O)[C@@H](N)Cc1ccccc1)[C@@H](C)CC)C(=O)N[C@@H](C)C(=O)N[C@@H](CCCNC(=N)N)C(=O)N[C@@H](CC(N)=O)C(=O)N[C@@H](CCC(=O)O)C(=O)N[C@@H](CC(N)=O)C(=O)N[C@@H](CCC(N)=O)C(=O)N[C@@H](CCCNC(=N)N)C(=O)N[C@@H](CCC(=O)O)C(=O)N[C@@H](CCC(N)=O)C(=O)N[C@@H](C)C(=O)NCC(=O)N[C@@H](CC(C)C)C(=O)N[C@@H](CC(N)=O)C(=O)N[C@@H](CCCNC(=N)N)C(=O)N[C@@H](CCCCN)C(=O)N[C@@H](Cc1ccc(O)cc1)C(=O)N[C@@H](CCCC)C(=O)N[C@@H](CC(=O)O)C(=O)N[C@@H](CCC(=O)O)C(=O)N[C@H](C(N)=O)C(C)C` [VIII, [Nle^18,21,38]-Carp Urotensin I(12-41)] (H-FHLLRN[Nle]IE[Nle]ARNENQREQAGLNRKY[Nle]DEV-NH2) is “inhibits the secretion of ACTH and β-END-LI”.

As to `CCCC[C@H](NC(=O)[C@H](CC(C)C)NC(=O)[C@H](CC(C)C)NC(=O)[C@H](CCCNC(=N)N)NC(=O)[C@H](CC(N)=O)NC(=O)[C@H](CC(N)=O)NC(=O)[C@H](C)NC(=O)[C@H](C)NC(=O)[C@H](CCC(N)=O)NC(=O)[C@H](CCC(N)=O)NC(=O)[C@H](CCCCN)NC(=O)[C@@H](NC(=O)[C@H](CCCCN)NC(=O)[C@H](CCC(=O)O)NC(=O)[C@H](CCC(N)=O)NC(=O)[C@H](CCCCN)NC(=O)[C@H](CCC(=O)O)NC(=O)[C@@H](NC(=O)[C@H](CCC(=O)O)NC(=O)[C@@H](NC(=O)[C@H](CCSC)NC(=O)[C@H](CCCCN)NC(=O)[C@H](CCCNC(=N)N)NC(=O)[C@H](CC(C)C)NC(=O)[C@H](CC(C)C)NC(=O)[C@H](CCC(=O)O)NC(=O)[C@@H](N)CC(C)C)C(C)C)C(C)C)[C@@H](C)CC)C(=O)N[C@@H](CC(=O)O)C(=O)N[C@H](C(=O)NCC(N)=O)[C@@H](C)O` [XVIII, [Val^18,20, Ile^26, Nle^37, Gly^40]-sauvagine(11-40)] (H-LELLRKMVEVEKQEKIKQQAANNRLL[Nle]DTG-NH2), the “inhibition” value is “inhibits the secretion of ACTH and β-END-LI”. The same measure, in the same setting: the entry for “[CML^14,19,27,36, Nle^38 ]-AHC(12-41) [XXVI]” is “inhibits the secretion of ACTH and β-END-LI”. [Nle^21,38, Arg^37 ]-hCRF(12-41) [IX]: the “inhibition” value was “inhibits the secretion of ACTH and β-END-LI”.

In the case of `CCCC[C@H](NC(=O)[C@H](CC(C)C)NC(=O)[C@H](CC(C)C)NC(=O)[C@H](CCCNC(=N)N)NC(=O)[C@H](CC(N)=O)NC(=O)[C@H](CC(N)=O)NC(=O)[C@H](C)NC(=O)[C@H](C)NC(=O)[C@H](CCC(N)=O)NC(=O)[C@H](CCC(N)=O)NC(=O)[C@H](CCCCN)NC(=O)[C@H](CCC(=O)O)NC(=O)[C@H](CCCCN)NC(=O)[C@H](CCC(=O)O)NC(=O)[C@H](CCC(N)=O)NC(=O)[C@H](CCCCN)NC(=O)[C@H](C)NC(=O)[C@@H](NC(=O)[C@H](CCC(=O)O)NC(=O)[C@@H](NC(=O)[C@H](CCSC)NC(=O)[C@H](CCCCN)NC(=O)[C@H](CCCNC(=N)N)NC(=O)[C@H](CC(C)C)NC(=O)[C@H](CC(C)C)NC(=O)[C@H](CCC(=O)O)NC(=O)[C@H](CC(C)C)NC(=O)[C@@H](N)CO)[C@@H](C)CC)[C@@H](C)CC)C(=O)N[C@@H](CC(=O)O)C(=O)N[C@H](C(=O)N[C@@H](CCC(N)=O)C(N)=O)[C@@H](C)O` [XVI, [Ala^21, Nle^37, Gln^40]-sauvagine (10-40)] (H-SLELLRKMIEIAKQEKEKQQAANNRLL[Nle]DTQ-NH2), the “inhibition” value was “inhibits the secretion of ACTH and β-END-LI”. With `CCCC[C@H](NC(=O)[C@H](CC(C)C)NC(=O)[C@H](CC(C)C)NC(=O)[C@H](CCCNC(=N)N)NC(=O)[C@H](CC(N)=O)NC(=O)[C@H](CC(N)=O)NC(=O)[C@H](C)NC(=O)[C@H](C)NC(=O)[C@H](CCC(N)=O)NC(=O)[C@H](CCC(N)=O)NC(=O)[C@H](CCCCN)NC(=O)[C@H](CCC(=O)O)NC(=O)[C@H](CCCCN)NC(=O)[C@H](CCC(=O)O)NC(=O)[C@H](CCC(N)=O)NC(=O)[C@H](CCCCNC(=N)N)NC(=O)[C@H](CCC(=O)O)NC(=O)[C@H](C)NC(=O)[C@H](CCC(=O)O)NC(=O)[C@@H](NC(=O)[C@H](CCSC)NC(=O)[C@H](CCCCN)NC(=O)[C@H](CCCNC(=N)N)NC(=O)[C@H](CC(C)C)NC(=O)[C@H](CC(C)C)NC(=O)[C@H](CCC(=O)O)NC(=O)[C@@H](N)CC(C)C)[C@@H](C)CC)C(=O)N[C@@H](CC(=O)O)C(=O)N[C@@H](Cc1ccccc1)C(=O)N[C@H](C(N)=O)[C@@H](C)CC` [XVII, [Ala^20, Har^22, Nle^37, Phe^39]-sauvagine (11-40)] (H-LELLRKMIEAE[hArg]QEKEKQQAANNRLL[Nle]DFI-NH2), the “inhibition” value was “inhibits the secretion of ACTH and β-END-LI”. Still for that read-out and setting: next, `CCCC[C@H](NC(=O)[C@H](CC(C)C)NC(=O)[C@H](CC(C)C)NC(=O)[C@H](CCCNC(=N)N)NC(=O)[C@H](CC(N)=O)NC(=O)[C@H](C)NC(=O)[C@H](C)NC(=O)[C@H](C)NC(=O)[C@H](CCC(N)=O)NC(=O)[C@H](CCC(=O)O)NC(=O)[C@H](C)NC(=O)[C@H](CCC(=O)O)NC(=O)[C@H](CCC(N)=O)NC(=O)[C@H](CCC(=O)O)NC(=O)[C@H](C)NC(=O)[C@H](CCCCN)NC(=O)[C@H](C)NC(=O)[C@H](CCSC)NC(=O)[C@H](CCC(=O)O)NC(=O)[C@H](CC(C)C)NC(=O)[C@H](CCSC)NC(=O)[C@H](CCC(=O)O)NC(=O)[C@H](CCCNC(=N)N)NC(=O)[C@H](CC(C)C)NC(=O)[C@H](CC(C)C)NC(=O)[C@H](CCC(=O)O)NC(=O)[C@H](N)CC(C)C)C(=O)N[C@@H](CCC(=O)O)C(=O)N[C@@H](CCC(=O)O)C(=O)N[C@@H](C)C(N)=O` [XXV, [D-Leu^12, Glu^13, Ala^33, Nle^38]-AHC (12-41)] (H-[dL]ELLREMLEMAKAEQEAEQAAANRLL[Nle]EEA-NH2): “inhibits the secretion of ACTH and β-END-LI”.
